According to ChEMBL document CHEMBL5385936, “Design, synthesis, α-amylase and glucose diffusion inhibition, and molecular docking studies of new indenopyrazolones bearing benzothiazole derivatives” (Bioorg Med Chem Lett, 2024):

Key:
[1] = In vitro antidiabetic activity measured by appearance of glucose in external solution using dialysis bag and D-glucose incubated for 1 to 27 hrs by 3,5-dinitrosalicylic acid based glucose diffusion inhibition assay; format: functional; conditions: time 1-27 hrs
[2] = Inhibition of Aspergillus oryzae alpha-amylase in presence of 1% starch incubated for 10 mins

Structure (SMILES) | Activity [1] [µg/mL] | IC50 [2] [µg/mL]
Cc1cccc(-c2nn(-c3nc4ccc(F)cc4s3)c3c2C(=O)c2ccccc2-3)c1 | 13.5 | 95.41
COc1cccc(-c2nn(-c3nc4ccc(F)cc4s3)c3c2C(=O)c2ccccc2-3)c1 | 10.9 | 162.5
Cc1ccc(-c2nn(-c3nc4ccc(F)cc4s3)c3c2C(=O)c2ccccc2-3)cc1 | 6.8 | 135.14
COc1ccc(-c2nn(-c3nc4c(C)cccc4s3)c3c2C(=O)c2ccccc2-3)cc1 | 12.7 | 161.92
O=C1c2ccccc2-c2c1c(-c1ccc(F)cc1)nn2-c1nc2ccc(F)cc2s1 | 11.5 | 144.106
Cc1cccc2sc(-n3nc(-c4cccc(Cl)c4)c4c3-c3ccccc3C4=O)nc12 | 2.25 | 171.2
COc1ccc(-c2nn(-c3nc4ccc(F)cc4s3)c3c2C(=O)c2ccccc2-3)cc1 | 4.26 | 104.74
Cc1cccc2sc(-n3nc(-c4cccc(Br)c4)c4c3-c3ccccc3C4=O)nc12 | 6.29 | 183.43
O=C1c2ccccc2-c2c1c(-c1cccc(Br)c1)nn2-c1nc2ccc(F)cc2s1 | 11.9 | 192.95
Cc1ccc(-c2nn(-c3nc4c(C)cccc4s3)c3c2C(=O)c2ccccc2-3)cc1 | 7.25 | 165.59
O=C1c2ccccc2-c2c1c(-c1ccc(Cl)cc1)nn2-c1nc2ccc(F)cc2s1 | 17.6 | 189.69
O=C1c2ccccc2-c2c1c(-c1cccc(Cl)c1)nn2-c1nc2ccc(F)cc2s1 | 18 | 190.98
C[C@H]1O[C@H](O[C@H]2[C@H](O)[C@@H](O)[C@@H](O[C@H]3[C@H](O)[C@@H](O)C(O)O[C@@H]3CO)O[C@@H]2CO)[C@H](O)[C@@H](O)[C@@H]1N[C@H]1C=C(CO)[C@@H](O)[C@H](O)[C@H]1O (some centres not stated) [ACARBOSE] | 2.76 | 103.6
O=C1c2ccccc2-c2c1c(-c1ccc(Br)cc1)nn2-c1nc2ccc(F)cc2s1 | 12.7 | 196.85
Cc1cccc(-c2nn(-c3nc4c(C)cccc4s3)c3c2C(=O)c2ccccc2-3)c1 | 8.25 | 198.33
Cc1cccc2sc(-n3nc(-c4ccc(Br)cc4)c4c3-c3ccccc3C4=O)nc12 | 17.2 | 132.41
Cc1cccc2sc(-n3nc(-c4ccc(Cl)cc4)c4c3-c3ccccc3C4=O)nc12 | 9.5 | 92.99
Cc1cccc2sc(-n3nc(-c4ccc(F)cc4)c4c3-c3ccccc3C4=O)nc12 | 13.2 | 159.95
Cc1cccc2sc(-n3nc(-c4ccccc4)c4c3-c3ccccc3C4=O)nc12 | 6.68 | 167.48
O=C1c2ccccc2-c2c1c(-c1ccccc1)nn2-c1nc2ccc(F)cc2s1 | 2.63 | 98.42
COc1cccc(-c2nn(-c3nc4c(C)cccc4s3)c3c2C(=O)c2ccccc2-3)c1 | 10.8 | 200.95
